Experimental data reported in PubChem BioAssay AID1259407 (Chemical Carcinogenesis Research Information System (CCRIS), 2018).
Calls of active or inactive are those of the source. The rule behind the calls is not given here.

System: CCRIS mutagenicity, Ames/micronucleus/aberration tests
Experiment: CCRIS mutagenicity studies

Measured: mutagenic call

Clc1cccc(Cl)c1NC1=NCCN1
inactive: Test System: AMES SALMONELLA TYPHIMURIUM, Strain/Indicator: TA98, Metabolic Activation: NONE, Method: PREINCUBATION inactive; negative | Test System: AMES SALMONELLA TYPHIMURIUM, Strain/Indicator: TA98, Metabolic Activation: S-9, Method: PREINCUBATION inactive; negative | Test System: AMES SALMONELLA TYPHIMURIUM, Strain/Indicator: TA100, Metabolic Activation: NONE, Method: PREINCUBATION inactive; negative | Test System: AMES SALMONELLA TYPHIMURIUM, Strain/Indicator: TA100, Metabolic Activation: S-9, Method: PREINCUBATION inactive; negative | Test System: AMES SALMONELLA TYPHIMURIUM, Strain/Indicator: TA1535, Metabolic Activation: NONE, Method: PREINCUBATION inactive; negative | Test System: AMES SALMONELLA TYPHIMURIUM, Strain/Indicator: TA1535, Metabolic Activation: S-9, Method: PREINCUBATION inactive; negative | Test System: AMES SALMONELLA TYPHIMURIUM, Strain/Indicator: TA1537, Metabolic Activation: NONE, Method: PREINCUBATION inactive; negative | Test System: AMES SALMONELLA TYPHIMURIUM, Strain/Indicator: TA1537, Metabolic Activation: S-9, Method: PREINCUBATION inactive; negative | Test System: E. COLI, Strain/Indicator: WP2 UVRA, Metabolic Activation: NONE, Method: PREINCUBATION inactive; negative | Test System: E. COLI, Strain/Indicator: WP2 UVRA, Metabolic Activation: S-9, Method: PREINCUBATION inactive; negative | Test System: UDS RAT HEPATOCYTES, Strain/Indicator: THY INCORP, Metabolic Activation: NONE, Method: IN VIVO-IN VITRO inactive; negative
